pIC50, pKi: −log10 of the molar value.
Experiments:
[1] = In vitro anti-plasmodial activity against Plasmodium falciparum dihydrofolate reductase N51I/C59R/S108N (W2)
[2] = In vitro anti-plasmodial activity against Plasmodium falciparum dihydrofolate reductase wild type (TM4/8.2)
[3] = In vitro anti-plasmodial activity against Plasmodium falciparum dihydrofolate reductase C59R+S108N/I164L (Csl-2) mutant
[4] = In vitro anti-plasmodial activity against Plasmodium falciparum dihydrofolate reductase […]/C59R/S108N/I164L (V1/S) mutant
[5] = In vitro anti-plasmodial activity against Plasmodium falciparum dihydrofolate reductase C59R/S108N (K1CB1) mutant
[6] = In vitro anti-plasmodial activity against Plasmodium falciparum dihydrofolate reductase A16V/S108T (T9/94RC17) mutant
[7] = target: Bifunctional dihydrofolate reductase-thymidylate synthase (Plasmodium falciparum (isolate K1 / Thailand), UniProt P13922); assay: Binding affinity towards wild-type dihydrofolate reductase of Plasmodium falciparum.
Bifunctional dihydrofolate reductase-thymidylate synthase, sequence (P13922 whole entry): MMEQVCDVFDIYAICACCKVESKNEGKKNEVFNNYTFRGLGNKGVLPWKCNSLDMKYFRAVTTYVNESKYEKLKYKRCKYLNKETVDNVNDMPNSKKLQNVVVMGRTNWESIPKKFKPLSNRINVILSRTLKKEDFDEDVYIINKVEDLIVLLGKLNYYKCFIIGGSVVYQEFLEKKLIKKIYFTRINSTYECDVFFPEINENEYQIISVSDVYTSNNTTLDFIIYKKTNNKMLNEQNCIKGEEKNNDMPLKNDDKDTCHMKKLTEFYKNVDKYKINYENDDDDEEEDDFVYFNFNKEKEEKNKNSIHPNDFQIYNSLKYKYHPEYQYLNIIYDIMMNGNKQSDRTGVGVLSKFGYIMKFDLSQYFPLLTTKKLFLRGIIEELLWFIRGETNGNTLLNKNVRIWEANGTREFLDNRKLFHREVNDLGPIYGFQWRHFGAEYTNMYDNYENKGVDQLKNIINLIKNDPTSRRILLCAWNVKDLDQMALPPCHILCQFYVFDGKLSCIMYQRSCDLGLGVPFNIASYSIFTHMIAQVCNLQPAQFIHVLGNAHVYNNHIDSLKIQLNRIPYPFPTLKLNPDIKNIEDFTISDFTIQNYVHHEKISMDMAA

Row | Compound | pIC50 [1] | pIC50 [2] | pIC50 [3] | pIC50 [4] | pIC50 [5] | pIC50 [6] | pKi [7]
1 | Nc1nc(N)c(-c2cccc(Cl)c2)c(CCCc2ccccc2)n1 | 5.37 | 6.17 | 5.44 | 5.24 |  |  | 
2 | Nc1nc(N)c(-c2ccccc2)c(CCCc2ccccc2)n1 | 5.57 | 6.68 | 5.57 | 5.07 |  |  | 
3 | NC1=NC(c2cccc(Oc3cc(Cl)cc(Cl)c3)c2)N(c2cccc(Cl)c2)C(N)=N1 (stereo unspecified) [1-(3-Chloro-phenyl)-6-[3-(3,5-dichloro-phenoxy)-phenyl]-1,6-dihydro-[1,3,5]triazine-2,4-diamine] | 5.47 | 5.26 | 5.41 | 5.41 | 5.51 | 7.30 | 8.74
4 | CCCCCCCC1N=C(N)N=C(N)N1c1cccc(Cl)c1 (stereo unspecified) [1-(3-Chloro-phenyl)-6-heptyl-1,6-dihydro-[1,3,5]triazine-2,4-diamine] | 6.48 | 7.40 | 6.85 | 5.60 | 6.59 | 8.40 | 8.57
5 | CCCCCCC1(C)N=C(N)N=C(N)N1c1cccc(Cl)c1 (stereo unspecified) [1-(3-Chloro-phenyl)-6-hexyl-6-methyl-1,6-dihydro-[1,3,5]triazine-2,4-diamine] | 6.29 | 7.22 | 6.31 | 5.49 | 6.32 |  | 8.62
6 | CC(C)C1(C)N=C(N)N=C(N)N1c1cccc(Cl)c1 (stereo unspecified) [1-(3-Chloro-phenyl)-6-isopropyl-6-methyl-1,6-dihydro-[1,3,5]triazine-2,4-diamine] |  |  |  |  |  |  | 7.59
7 | NC1=NC(c2cccc(OCCCOc3cc(Cl)c(Cl)cc3Cl)c2)N(c2cccc(Cl)c2)C(N)=N1 (stereo unspecified) [1-(3-chlorophenyl)-6-(3-(3-(2,4,5-trichlorophenoxy)propoxy)phenyl)-1,6-dihydro-1,3,5-triazine-2,4-diamine] | 5.49 | 5.52 | 5.28 | 5.07 | 5.13 | 6.43 | 8.40
8 | NC1=NC(c2cccc(Oc3cccc(C(F)(F)F)c3)c2)N(c2cccc(Cl)c2)C(N)=N1 (stereo unspecified) [1-(3-chlorophenyl)-6-(3-(3-(trifluoromethyl)phenoxy)phenyl)-1,6-dihydro-1,3,5-triazine-2,4-diamine] | 5.55 | 5.49 | 5.47 | 5.49 | 5.55 | 6.74 | 8.57
9 | NC1=NC(c2cccc(Oc3ccccc3)c2)N(c2cccc(Cl)c2)C(N)=N1 (stereo unspecified) [1-(3-chlorophenyl)-6-(3-phenoxyphenyl)-1,6-dihydro-1,3,5-triazine-2,4-diamine] | 5.46 | 5.66 | 5.47 | 5.44 | 5.57 | 7.22 | 8.96
10 | NC1=NC(c2ccc(Oc3ccccc3)cc2)N(c2cccc(Cl)c2)C(N)=N1 (stereo unspecified) [1-(3-chlorophenyl)-6-(4-phenoxyphenyl)-1,6-dihydro-1,3,5-triazine-2,4-diamine] | 6.13 | 6.19 | 5.48 | 5.48 | 5.51 | 8.40 | 9.15
11 | CCCOc1ccc(C2N=C(N)N=C(N)N2c2cccc(Cl)c2)cc1 (stereo unspecified) [1-(3-chlorophenyl)-6-(4-propoxyphenyl)-1,6-dihydro-1,3,5-triazine-2,4-diamine] | 6.42 | 6.60 | 5.54 | 5.54 | 6.00 | 8.40 | 
12 | CCCC1(C)N=C(N)N=C(N)N1c1cccc(Cl)c1 (stereo unspecified) [1-(3-chlorophenyl)-6-methyl-6-propyl-1,6-dihydro-1,3,5-triazine-2,4-diamine] | 6.55 | 6.74 | 6.54 | 5.96 | 6.74 |  | 8.34
13 | NC1=NC(c2ccccc2)N(c2cccc(Cl)c2)C(N)=N1 (stereo unspecified) [1-(3-chlorophenyl)-6-phenyl-1,6-dihydro-1,3,5-triazine-2,4-diamine] | 6.70 | 6.25 | 6.60 | 6.10 | 6.51 | 7.70 | 
14 | NC1=NC(c2cccc(Oc3ccccc3)c2)N(c2ccc(Cl)cc2)C(N)=N1 (stereo unspecified) [1-(4-Chloro-phenyl)-6-(3-phenoxy-phenyl)-1,6-dihydro-[1,3,5]triazine-2,4-diamine] |  |  |  |  |  |  | 9.30
15 | CC(C)C1(C)N=C(N)N=C(N)N1c1ccc(Cl)cc1 (stereo unspecified) [1-(4-Chloro-phenyl)-6-isopropyl-6-methyl-1,6-dihydro-[1,3,5]triazine-2,4-diamine] |  |  |  |  |  |  | 7.44
16 | CCCC1(C)N=C(N)N=C(N)N1c1ccc(Cl)cc1 (stereo unspecified) [1-(4-Chloro-phenyl)-6-methyl-6-propyl-1,6-dihydro-[1,3,5]triazine-2,4-diamine] |  |  |  |  |  |  | 8.46
17 | NC1=NC(c2ccc(Oc3ccccc3)cc2)N(c2ccc(Cl)cc2)C(N)=N1 (stereo unspecified) [1-(4-chlorophenyl)-6-(4-phenoxyphenyl)-1,6-dihydro-1,3,5-triazine-2,4-diamine] | 5.49 | 6.92 | 5.32 |  | 5.51 | 7.40 | 9.40

Row | Compound | pIC50 [1] | pIC50 [2] | pIC50 [3] | pIC50 [4] | pIC50 [5] | pIC50 [6] | pKi [7]
18 | CCCCCCC1(C)N=C(N)N=C(N)N1c1ccc(Cl)cc1 (stereo unspecified) [1-(4-chlorophenyl)-6-hexyl-6-methyl-1,6-dihydro-1,3,5-triazine-2,4-diamine] | 5.48 | 7.70 | 5.39 | 5.19 | 5.62 | 5.72 | 9.22
19 | Nc1nc(N)c(-c2cccc(Cl)c2)c(CCCOC(=O)c2ccccc2)n1 [3-(2,6-diamino-5-(3-chlorophenyl)pyrimidin-4-yl)propyl benzoate] | 5.70 | 5.68 | 5.72 | 5.12 |  |  | 8.82
20 | Nc1nc(N)c(-c2cccc(Cl)c2)c(CCCO)n1 [3-[2,6-Diamino-5-(3-chloro-phenyl)-pyrimidin-4-yl]-propan-1-ol] | 5.35 | 5.96 | 5.72 | 5.21 |  |  | 8.04
21 | COc1ccc(CCCc2nc(N)nc(N)c2-c2cccc(Cl)c2)cc1 [5-(3-Chloro-phenyl)-6-[3-(4-methoxy-phenyl)-propyl]-pyrimidine-2,4-diamine] | 5.40 | 6.39 | 5.57 | 5.33 |  |  | 
22 | Nc1nc(N)c(-c2cccc(Cl)c2)c(CCOCCCOc2ccccc2)n1 [5-(3-chlorophenyl)-6-[2-(3-phenoxypropoxy)ethyl]pyrimidine-2,4-diamine] | 5.35 | 6.46 | 5.54 | 5.34 |  |  | 
23 | CCc1nc(N)nc(N)c1-c1cccc(Cl)c1 [5-(3-chlorophenyl)-6-ethylpyrimidine-2,4-diamine] | 5.41 | 6.38 | 5.60 | 5.04 |  |  | 
24 | NC1=NC(c2cccc(Oc3ccc(Cl)cc3)c2)N(c2cccc(Cl)c2)C(N)=N1 (stereo unspecified) [6-(3-(4-chlorophenoxy)phenyl)-1-(3-chlorophenyl)-1,6-dihydro-1,3,5-triazine-2,4-diamine] | 5.70 | 5.41 | 5.51 | 5.49 | 5.59 | 6.41 | 8.89
25 | NC1=NC(c2cccc(Oc3ccc(Cl)cc3)c2)N(c2ccc(Cl)cc2)C(N)=N1 (stereo unspecified) [6-(3-(4-chlorophenoxy)phenyl)-1-(4-chlorophenyl)-1,6-dihydro-1,3,5-triazine-2,4-diamine] |  | 5.55 |  |  | 5.48 | 6.38 | 8.85
26 | NC1=NC(c2cccc(OCc3ccccc3)c2)N(c2cccc(Cl)c2)C(N)=N1 (stereo unspecified) [6-(3-(benzyloxy)phenyl)-1-(3-chlorophenyl)-1,6-dihydro-1,3,5-triazine-2,4-diamine] | 5.48 | 5.40 | 5.12 |  | 5.31 | 6.72 | 8.64
27 | NC1=NC(c2cccc(OCc3ccccc3)c2)N(c2ccc(Cl)cc2)C(N)=N1 (stereo unspecified) [6-(3-Benzyloxy-phenyl)-1-(4-chloro-phenyl)-1,6-dihydro-[1,3,5]triazine-2,4-diamine] |  |  |  |  |  |  | 9.15
28 | CCCCCCc1nc(N)nc(N)c1-c1ccccc1 [6-hexyl-5-phenylpyrimidine-2,4-diamine] | 5.64 | 7.22 | 5.52 | 5.19 |  |  | 
29 | CC(=O)OCCCc1nc(N)nc(N)c1-c1ccccc1 [Acetic acid 3-(2,6-diamino-5-phenyl-pyrimidin-4-yl)-propyl ester] |  |  |  |  |  |  | 7.97
30 | CC(=O)OCCCc1nc(N)nc(N)c1-c1cccc(Cl)c1 [Acetic acid 3-[2,6-diamino-5-(3-chloro-phenyl)-pyrimidin-4-yl]-propyl ester] | 5.68 | 5.80 | 5.74 | 5.28 |  |  | 
31 | Nc1nc(N)c(-c2ccccc2)c(CCCOC(=O)c2ccccc2)n1 [Benzoic acid 3-(2,6-diamino-5-phenyl-pyrimidin-4-yl)-propyl ester] |  |  |  |  |  |  | 8.47
32 | CC1(C)N=C(N)N=C(N)N1c1ccc(Cl)cc1 [Chlorazin] | 5.24 | 7.40 | 4.42 | < 4.00 |  | 5.43 | 
33 | Nc1nc(N)c(-c2cccc(Cl)c2)c(CCCOC(=O)OCc2ccccc2)n1 [benzyl 3-(2,6-diamino-5-(3-chlorophenyl)pyrimidin-4-yl)propyl carbonate] | 5.39 | 5.72 | 5.72 | 5.23 |  |  | 8.92

Source: BindingDB's records for doi:10.1021/jm030165t (National Center For Genetic Engineering and Biotechnology …, 2004)
